Source: the supplement of paper PMC10307832

How the values were obtained:
Test in all cases: relative viability (nuclei count vs DMSO), 5 days (fraction); higher = more cells survive
[1] = compound: C[C@@H](C(=O)N[C@@H](C1CCCCC1)C(=O)N2CCC[C@H]2C(=O)N[C@@H]3[C@@H](CC4=CC=CC=C34)OCC#CC#CCO[C@@H]5CC6=CC=CC=C6[C@@H]5NC(=O)[C@@H]7CCCN7C(=O)[C@H](C8CCCCC8)NC(=O)[C@H](C)NC)NC [AZD5582] + CS(=O)(=O)CCNCc1ccc(-c2ccc3ncnc(Nc4ccc(OCc5cccc(F)c5)c(Cl)c4)c3c2)o1 [Lapatinib] (partner 2 µM)
Summary of the method: (§1)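 A single step with final 0.05% Triton X-100, 1% formaldehyde and 1 ug/ml Hoechst fixed the cells and stained nuclei 5 days after treatment. Lung cancer cell lines in 1536-well plates had been treated by pin tool the day after seeding with one drug alone or a fixed anchor-drug dose plus five library-drug doses (not always all listed) in √10 steps, and nuclei were counted on 4× images. Relative viability is the ratio of nuclei in treated wells to nuclei in vehicle wells, taken as the median of duplicate plates.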

[2] = compound: C[C@@H](C(=O)N[C@@H](C1CCCCC1)C(=O)N2CCC[C@H]2C(=O)N[C@@H]3[C@@H](CC4=CC=CC=C34)OCC#CC#CCO[C@@H]5CC6=CC=CC=C6[C@@H]5NC(=O)[C@@H]7CCCN7C(=O)[C@H](C8CCCCC8)NC(=O)[C@H](C)NC)NC [AZD5582] + CS(=O)(=O)N1CCN(Cc2cc3nc(-c4cccc5[nH]ncc45)nc(N4CCOCC4)c3s2)CC1 [Pictilisib] (partner 1 µM)
Summary of the method: as §1

[3] = compound: Cn1nnc2c(C(N)=O)ncn2c1=O [Temozolomide] + CS(=O)(=O)CCNCc1ccc(-c2ccc3ncnc(Nc4ccc(OCc5cccc(F)c5)c(Cl)c4)c3c2)o1 [Lapatinib] (partner 2 µM)
Summary of the method: as §1

[4] = compound: Cn1nnc2c(C(N)=O)ncn2c1=O [Temozolomide] + Cc1nc(NC(=O)N2CCC[C@H]2C(N)=O)sc1-c1ccnc(C(C)(C)C(F)(F)F)c1 [Alpelisib] (partner 2 µM)
Summary of the method: as §1

Cell Line | relative viability ([1]; first compound 0.001581 µM) | relative viability ([1]; first compound 0.005 µM) | relative viability ([1]; first compound 0.01581 µM) | relative viability ([1]; first compound 0.05 µM) | relative viability ([2]; first compound 0.001581 µM) | relative viability ([2]; first compound 0.005 µM) | relative viability ([2]; first compound 0.01581 µM) | relative viability ([2]; first compound 0.05 µM) | relative viability ([3]; first compound 0.2 µM) | relative viability ([3]; first compound 0.6325 µM) | relative viability ([3]; first compound 2 µM) | relative viability ([3]; first compound 6.325 µM) | relative viability ([3]; first compound 20 µM) | relative viability ([4]; first compound 0.2 µM) | relative viability ([4]; first compound 0.6325 µM) | relative viability ([4]; first compound 2 µM) | relative viability ([4]; first compound 6.325 µM) | relative viability ([4]; first compound 20 µM)
201T | 1.03 | 1.16 | 1.05 | 1.2 | 0.697 | 0.733 | 0.703 | 0.808 | 1.07 | 1.06 | 1.03 | 1.02 | 1.03 | 0.977 | 1.05 | 1.04 | 1.04 | 0.985
A549 | 0.896 | 0.983 | 0.898 | 0.851 | 0.474 | 0.477 | 0.585 | 0.505 | 0.989 | 1.03 | 1.01 | 1.03 | 0.912 | 0.828 | 0.738 | 0.69 | 0.738 | 0.773
A-427 | 0.865 | 0.996 | 0.942 | 0.831 | 0.567 | 0.671 | 0.734 | 0.587 | 0.989 | 1.09 | 1.14 | 0.91 | 0.487 | 1.05 | 1.06 | 1.05 | 0.878 | 0.547
ABC-1 | 0.932 | 1.19 | 1.01 | 1.44 | 0.586 | 0.93 | 0.478 | 0.679 | 0.93 | 1.22 | 1.18 | 1.16 | 1.3 | 1.19 | 1.17 | 1.15 | 1.1 | 0.829
BEN | 0.478 | 0.67 | 0.764 | 0.417 | 0.54 | 0.561 | 0.654 | 0.534 | 0.641 | 0.692 | 0.66 | 0.633 | 0.467 | 0.914 | 1.29 | 0.939 | 0.977 | 0.757
CAL-12T | 0.293 | 0.434 | 0.382 | 0.326 | 0.305 | 0.314 | 0.265 | 0.351 | – | 0.585 | 0.601 | 0.607 | 0.8 | 1.11 | 1.22 | 1.14 | 1.06 | 1.18
COR-L23 | 0.982 | 1.08 | 1.07 | 1.1 | 0.71 | 0.818 | 0.621 | 0.717 | 1.25 | 1.03 | 1.12 | 1.02 | 0.948 | 0.957 | 0.851 | 0.859 | 0.752 | 0.662
COR-L 105 | 0.351 | 0.424 | 0.315 | 0.421 | 0.413 | 0.505 | 0.288 | 0.412 | 0.392 | 0.387 | 0.356 | 0.35 | 0.351 | 0.915 | 1.03 | 1.15 | 1.07 | 1.02
Calu-6 | 0.626 | 0.662 | 1.14 | 0.568 | 0.779 | – | 0.939 | 0.698 | 1.17 | 1.07 | 1.11 | 1.13 | 1.16 | 1.03 | 0.989 | 0.984 | 0.973 | 0.977
ChaGo-K-1 | – | – | – | – | 0.757 | 0.965 | 0.432 | 0.78 | – | – | – | – | – | – | – | – | – | –
EBC-1 | 0.187 | 0.226 | 0.193 | 0.255 | 0.256 | 0.328 | 0.346 | 0.344 | 0.197 | 0.193 | 0.252 | 0.203 | 0.194 | 0.982 | 0.812 | 0.918 | 0.769 | 0.871
EKVX | 0.207 | 0.209 | 0.169 | 0.199 | 0.399 | 0.568 | 0.362 | 0.513 | 0.189 | 0.238 | 0.204 | 0.242 | 0.197 | 0.335 | 0.935 | 0.856 | 0.886 | 0.656
EMC-BAC-2 | 0.782 | 0.903 | 0.865 | 0.564 | 0.469 | 0.523 | 0.414 | 0.328 | 0.914 | 0.871 | 0.898 | 0.856 | 0.84 | 0.743 | 0.731 | 0.743 | 0.75 | 0.691
EPLC-272H | 0.313 | 0.16 | 0.573 | 0.11 | 0.115 | 0.0891 | 0.216 | 0.0826 | 1.12 | 1.05 | 1.01 | 0.798 | 0.858 | 0.727 | 1.08 | 0.947 | 0.849 | 0.664
H3255 | 0.249 | 0.284 | 0.208 | 0.216 | 0.472 | 0.454 | 0.392 | 0.39 | – | 0.243 | 0.233 | 0.376 | 0.241 | – | 0.686 | 0.599 | 0.755 | 0.146
HARA | 0.789 | 0.943 | 0.756 | 0.698 | 0.553 | 0.494 | 0.381 | 0.338 | 0.777 | 0.721 | 0.975 | 0.658 | 0.732 | 0.72 | 0.945 | 0.81 | 0.773 | 0.666
HCC-15 | 0.644 | 0.734 | 0.521 | 0.655 | 0.566 | 0.596 | 0.621 | 0.509 | 0.91 | 0.87 | 0.931 | 0.829 | 0.892 | 0.903 | 0.947 | 0.898 | 0.993 | 0.834
HCC-44 | 0.754 | 0.916 | 1.11 | 0.467 | 0.485 | 0.6 | 0.461 | 0.233 | 1.14 | 1.01 | 1.11 | 1.05 | 0.975 | 0.811 | 0.842 | 0.868 | 0.786 | 0.717
